According to ChEMBL document CHEMBL4393664, “2,4-Disubstituted quinazolines targeting breast cancer cells via EGFR-PI3K” (Eur J Med Chem, 2019):

Assays:
Assay type in all cases: functional, cell-based
MGC-803 = test: Cytotoxicity against human MGC803 cells assessed as reduction in cell viability after 72 hrs by MTT assay; conditions: MGC-803, 72 h
HGC-27 = test: Cytotoxicity against human HGC27 cells assessed as reduction in cell viability after 72 hrs by MTT assay; conditions: HGC-27, 72 h
MCF7 = test: Cytotoxicity against human MCF7 cells assessed as reduction in cell viability after 72 hrs by MTT assay; conditions: MCF7, 72 h
MDA-MB-231 = test: Cytotoxicity against human MDA-MB-231 cells assessed as reduction in cell viability after 72 hrs by MTT assay; conditions: MDA-MB-231, 72 h
PC-3 = test: Cytotoxicity against human PC3 cells assessed as reduction in cell viability after 72 hrs by MTT assay; conditions: PC-3, 72 h

## FC(F)(F)c1ccc(CSc2nc(Nc3ccccc3Cl)c3ccccc3n2)cc1
MGC-803
  IC50: > 50 µM
HGC-27
  IC50: > 50 µM
MCF7
  IC50: > 50 µM
MDA-MB-231
  IC50: > 50 µM
PC-3
  IC50: 20.4 µM

## COc1cc(Nc2nc(SCc3ccc(C(F)(F)F)cc3)nc3ccccc23)cc(OC)c1
MGC-803
  IC50: 8.58 µM
HGC-27
  IC50: > 50 µM
MCF7
  IC50: 6.99 µM
MDA-MB-231
  IC50: 16.1 µM
PC-3
  IC50: > 50 µM

## FC(F)(F)c1ccc(CSc2nc(Nc3cccc(Br)c3)c3ccccc3n2)cc1
MGC-803
  IC50: 23.7 µM
HGC-27
  IC50: 18.3 µM
MCF7
  IC50: 25.6 µM
MDA-MB-231
  IC50: 22.1 µM
PC-3
  IC50: 8.68 µM

## CCCCCCCCNc1nc(SCc2ccc(C(F)(F)F)cc2)nc2ccccc12
MGC-803
  IC50: 12.6 µM
HGC-27
  IC50: 13.4 µM
MCF7
  IC50: 26.1 µM
MDA-MB-231
  IC50: 22.3 µM
PC-3
  IC50: 10.5 µM

## Cc1ccccc1Nc1nc(SCc2ccc(C(F)(F)F)cc2)nc2ccccc12
MGC-803
  IC50: 24.4 µM
HGC-27
  IC50: 27.5 µM
MCF7
  IC50: 37.5 µM
MDA-MB-231
  IC50: 27.1 µM
PC-3
  IC50: 36.9 µM

## Fc1ccc(Nc2nc(SCc3ccc(C(F)(F)F)cc3)nc3ccccc23)cc1
MGC-803
  IC50: 9.62 µM
HGC-27
  IC50: 19.5 µM
MCF7
  IC50: 36.3 µM
MDA-MB-231
  IC50: 15 µM
PC-3
  IC50: 7.07 µM

## FC(F)(F)c1ccc(CSc2nc(Nc3ccc(Cl)cc3)c3ccccc3n2)cc1
MGC-803
  IC50: 16.8 µM
HGC-27
  IC50: 14.1 µM
MCF7
  IC50: 21.5 µM
MDA-MB-231
  IC50: 15.1 µM
PC-3
  IC50: 7.11 µM

## FC(F)(F)c1ccc(CSc2nc(Nc3cccc(Cl)c3)c3ccccc3n2)cc1
MGC-803
  IC50: 14.6 µM
HGC-27
  IC50: 19.9 µM
MCF7
  IC50: 25.1 µM
MDA-MB-231
  IC50: 18 µM
PC-3
  IC50: 13.4 µM

## FC(F)(F)c1ccc(CSc2nc(N3CCCCC3)c3ccccc3n2)cc1
MGC-803
  IC50: 18.6 µM
HGC-27
  IC50: > 50 µM
MCF7
  IC50: > 50 µM
MDA-MB-231
  IC50: 28.4 µM
PC-3
  IC50: 25.5 µM

## FC(F)(F)c1ccc(CSc2nc(Nc3ccccc3C(F)(F)F)c3ccccc3n2)cc1
MGC-803
  IC50: > 50 µM
HGC-27
  IC50: > 50 µM
MCF7
  IC50: > 50 µM
MDA-MB-231
  IC50: > 50 µM
PC-3
  IC50: 34.8 µM

## CCOc1ccc(Nc2nc(SCc3ccc(C(F)(F)F)cc3)nc3ccccc23)cc1
MGC-803
  IC50: 37 µM
HGC-27
  IC50: 33 µM
MCF7
  IC50: > 50 µM
MDA-MB-231
  IC50: 23 µM
PC-3
  IC50: 32 µM

## FC(F)(F)c1ccc(CSc2nc(Nc3cccc(C(F)(F)F)c3)c3ccccc3n2)cc1
MGC-803
  IC50: 15.1 µM
HGC-27
  IC50: 11.7 µM
MCF7
  IC50: 15.3 µM
MDA-MB-231
  IC50: 11.1 µM
PC-3
  IC50: 12.9 µM

## O=[N+]([O-])c1cccc(Nc2nc(SCc3ccc(C(F)(F)F)cc3)nc3ccccc23)c1
MGC-803
  IC50: > 50 µM
HGC-27
  IC50: > 50 µM
MCF7
  IC50: > 50 µM
MDA-MB-231
  IC50: 31.5 µM
PC-3
  IC50: 13.5 µM

## CCCCCCCCCCCCNc1nc(SCc2ccc(C(F)(F)F)cc2)nc2ccccc12
MGC-803
  IC50: > 50 µM
HGC-27
  IC50: 38.7 µM
MCF7
  IC50: > 50 µM
MDA-MB-231
  IC50: > 50 µM
PC-3
  IC50: 26 µM

## O=[N+]([O-])c1ccc(Nc2nc(SCc3ccc(C(F)(F)F)cc3)nc3ccccc23)cc1
MGC-803
  IC50: 8.17 µM
HGC-27
  IC50: 16.6 µM
MCF7
  IC50: 17.9 µM
MDA-MB-231
  IC50: 8.67 µM
PC-3
  IC50: 7.9 µM

## Cc1ccc(Nc2nc(SCc3ccc(C(F)(F)F)cc3)nc3ccccc23)cc1
MGC-803
  IC50: 36.1 µM
HGC-27
  IC50: 34.6 µM
MCF7
  IC50: > 50 µM
MDA-MB-231
  IC50: > 50 µM
PC-3
  IC50: 21.1 µM

## COc1cc(Nc2nc(SCc3ccc(C(F)(F)F)cc3)nc3ccccc23)cc(OC)c1OC
MGC-803
  IC50: 8.24 µM
HGC-27
  IC50: 14 µM
MCF7
  IC50: > 50 µM
MDA-MB-231
  IC50: > 50 µM
PC-3
  IC50: 7.37 µM

## CCCCCCNc1nc(SCc2ccc(C(F)(F)F)cc2)nc2ccccc12
MGC-803
  IC50: 13.1 µM
HGC-27
  IC50: 23.9 µM
MCF7
  IC50: 24.3 µM
MDA-MB-231
  IC50: 20.2 µM
PC-3
  IC50: 19 µM

## COc1ccc(Nc2nc(SCc3ccc(C(F)(F)F)cc3)nc3ccccc23)cc1OC
MGC-803
  IC50: 16.3 µM
HGC-27
  IC50: 17.9 µM
MCF7
  IC50: > 50 µM
MDA-MB-231
  IC50: 18.9 µM
PC-3
  IC50: 14.1 µM

## CCOc1ccccc1Nc1nc(SCc2ccc(C(F)(F)F)cc2)nc2ccccc12
MGC-803
  IC50: > 50 µM
HGC-27
  IC50: > 50 µM
MCF7
  IC50: > 50 µM
MDA-MB-231
  IC50: > 50 µM
PC-3
  IC50: 26.2 µM

## FC(F)(F)c1ccc(CSc2nc(Nc3ccccc3)c3ccccc3n2)cc1
MGC-803
  IC50: 22.2 µM
HGC-27
  IC50: 26.4 µM
MCF7
  IC50: 44 µM
MDA-MB-231
  IC50: 18.4 µM
PC-3
  IC50: 20 µM

## Fc1ccc(Nc2nc(SCc3ccc(C(F)(F)F)cc3)nc3ccccc23)cc1Cl
MGC-803
  IC50: > 50 µM
HGC-27
  IC50: 14.7 µM
MCF7
  IC50: 23 µM
MDA-MB-231
  IC50: 14.5 µM
PC-3
  IC50: 18.6 µM

## CCCCCCCCCCCCCCNc1nc(SCc2ccc(C(F)(F)F)cc2)nc2ccccc12
MGC-803
  IC50: > 50 µM
HGC-27
  IC50: > 50 µM
MCF7
  IC50: > 50 µM
MDA-MB-231
  IC50: > 50 µM
PC-3
  IC50: > 50 µM

## COc1ccccc1Nc1nc(SCc2ccc(C(F)(F)F)cc2)nc2ccccc12
MGC-803
  IC50: > 50 µM
HGC-27
  IC50: > 50 µM
MCF7
  IC50: > 50 µM
MDA-MB-231
  IC50: > 50 µM
PC-3
  IC50: 14.1 µM

## COc1ccc(Nc2nc(SCc3ccc(C(F)(F)F)cc3)nc3ccccc23)cc1
MGC-803
  IC50: 13.8 µM
HGC-27
  IC50: 23.5 µM
MCF7
  IC50: 47.2 µM
MDA-MB-231
  IC50: 15.7 µM
PC-3
  IC50: 16.7 µM

## COc1ccc(Nc2nc(SCc3ccc(C(F)(F)F)cc3)nc3ccccc23)c(OC)c1
MGC-803
  IC50: > 50 µM
HGC-27
  IC50: > 50 µM
MCF7
  IC50: > 50 µM
MDA-MB-231
  IC50: > 50 µM
PC-3
  IC50: 32.5 µM
